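Each compound was tested at five concentrations against cells in 96-well plates for 48 hours. TGI: concentration producing complete growth inhibition.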
How the values were obtained:
Assay in all cases: NCI tumour cell line growth inhibition, 48 h
SK-MEL-28 melanoma = system: SK-MEL-28 melanoma
HOP-62 NSCLC = system: HOP-62 NSCLC
HS 578T breast = system: HS 578T breast
RPMI-8226 leukemia = system: RPMI-8226 leukemia
MOLT-4 leukemia = system: MOLT-4 leukemia
SK-OV-3 ovarian = system: SK-OV-3 ovarian
OVCAR-4 ovarian = system: OVCAR-4 ovarian
HCC-2998 colon = system: HCC-2998 colon
NCI/ADR-RES ovarian = system: NCI/ADR-RES ovarian
ACHN renal = system: ACHN renal
MDA-MB-231 breast = system: MDA-MB-231 breast
NCI-H23 lung = system: NCI-H23 lung
NCI-H226 lung = system: NCI-H226 lung
M14 melanoma = system: M14 melanoma
DU-145 prostate = system: DU-145 prostate
NCI-H460 lung = system: NCI-H460 lung
HT29 colon = system: HT29 colon
SNB-19 CNS = system: SNB-19 CNS
SN12C renal = system: SN12C renal
SF-268 CNS = system: SF-268 CNS
OVCAR-5 ovarian = system: OVCAR-5 ovarian
SW-620 colon = system: SW-620 colon
HOP-92 NSCLC = system: HOP-92 NSCLC
OVCAR-8 ovarian = system: OVCAR-8 ovarian
IGROV1 ovarian = system: IGROV1 ovarian
UACC-62 melanoma = system: UACC-62 melanoma
HCT-116 colon = system: HCT-116 colon
TK-10 renal = system: TK-10 renal
NCI-H522 lung = system: NCI-H522 lung
A549 NSCLC = system: A549 NSCLC
T-47D breast = system: T-47D breast
SR leukemia = system: SR leukemia
KM12 colon = system: KM12 colon
UACC-257 melanoma = system: UACC-257 melanoma
SF-539 CNS = system: SF-539 CNS
COLO 205 colon = system: COLO 205 colon
UO-31 renal = system: UO-31 renal
CAKI-1 renal = system: CAKI-1 renal
SK-MEL-5 melanoma = system: SK-MEL-5 melanoma
786-0 renal = system: 786-0 renal
HL-60(TB) leukemia = system: HL-60(TB) leukemia
U251 CNS = system: U251 CNS
K-562 leukemia = system: K-562 leukemia
CCRF-CEM leukemia = system: CCRF-CEM leukemia
SNB-75 CNS = system: SNB-75 CNS
PC-3 prostate = system: PC-3 prostate
EKVX NSCLC = system: EKVX NSCLC
SF-295 CNS = system: SF-295 CNS
BT-549 breast = system: BT-549 breast
RXF 393 renal = system: RXF 393 renal
MCF7 breast = system: MCF7 breast
MDA-N = system: MDA-N
OVCAR-3 ovarian = system: OVCAR-3 ovarian
HCT-15 colon = system: HCT-15 colon
A498 renal = system: A498 renal
SK-MEL-2 melanoma = system: SK-MEL-2 melanoma
LOX IMVI melanoma = system: LOX IMVI melanoma
MDA-MB-435 = system: MDA-MB-435
MALME-3M melanoma = system: MALME-3M melanoma

CC1=Cc2ccc(C)cc2C(=O)C1=O
TGI (SK-MEL-28 melanoma): 52.9 µM | TGI (HOP-62 NSCLC): 57 µM | TGI (HS 578T breast): > 65.1 µM | TGI (RPMI-8226 leukemia): 7.34 µM | TGI (MOLT-4 leukemia): 6.13 µM | TGI (SK-OV-3 ovarian): 27 µM | TGI (OVCAR-4 ovarian): 32 µM | TGI (HCC-2998 colon): 30.8 µM | TGI (NCI/ADR-RES ovarian): 46.8 µM | TGI (ACHN renal): 4.14 µM | TGI (MDA-MB-231 breast): 59.6 µM | TGI (NCI-H23 lung): 45.3 µM | TGI (NCI-H226 lung): > 100 µM | TGI (M14 melanoma): 10.5 µM | TGI (DU-145 prostate): 35.3 µM | TGI (NCI-H460 lung): 41 µM | TGI (HT29 colon): 49.3 µM | TGI (SNB-19 CNS): 45.2 µM | TGI (SN12C renal): 12.8 µM | TGI (SF-268 CNS): 27.5 µM | TGI (OVCAR-5 ovarian): 37.2 µM | TGI (SW-620 colon): > 100 µM | TGI (HOP-92 NSCLC): 17.6 µM | TGI (OVCAR-8 ovarian): > 73.8 µM | TGI (IGROV1 ovarian): 29.4 µM | TGI (UACC-62 melanoma): 40.3 µM | TGI (HCT-116 colon): 10.8 µM | TGI (TK-10 renal): 3.68 µM | TGI (NCI-H522 lung): 4.15 µM | TGI (A549 NSCLC): 50.2 µM | TGI (T-47D breast): 5.36 µM | TGI (SR leukemia): 4.38 µM | TGI (KM12 colon): 34.5 µM | TGI (UACC-257 melanoma): 15.8 µM | TGI (SF-539 CNS): 14.9 µM | TGI (COLO 205 colon): 16.3 µM | TGI (UO-31 renal): 3.04 µM | TGI (CAKI-1 renal): 36.3 µM | TGI (SK-MEL-5 melanoma): 42.2 µM | TGI (786-0 renal): 3.81 µM | TGI (HL-60(TB) leukemia): 4.13 µM | TGI (U251 CNS): 45.2 µM | TGI (K-562 leukemia): > 23.9 µM | TGI (CCRF-CEM leukemia): 1.98 µM | TGI (SNB-75 CNS): 21.8 µM | TGI (PC-3 prostate): 43 µM | TGI (EKVX NSCLC): 42.3 µM | TGI (SF-295 CNS): 34.7 µM | TGI (BT-549 breast): 49.1 µM | TGI (RXF 393 renal): 3.27 µM | TGI (MCF7 breast): 54.5 µM | TGI (MDA-N): 11.9 µM | TGI (OVCAR-3 ovarian): 49.4 µM | TGI (HCT-15 colon): 47.1 µM | TGI (A498 renal): 51.6 µM | TGI (SK-MEL-2 melanoma): 52.9 µM | TGI (LOX IMVI melanoma): 20.7 µM | TGI (MDA-MB-435): 4.27 µM

O=[N+]([O-])c1cccc(N=Nc2c(O)c(S(=O)(=O)O)cc3cc(S(=O)(=O)O)ccc23)c1
TGI (SK-MEL-28 melanoma): > 100 µM | TGI (HOP-62 NSCLC): > 100 µM | TGI (HS 578T breast): > 100 µM | TGI (MOLT-4 leukemia): > 100 µM | TGI (SK-OV-3 ovarian): > 100 µM | TGI (MALME-3M melanoma): > 100 µM | TGI (OVCAR-4 ovarian): > 100 µM | TGI (HCC-2998 colon): > 100 µM | TGI (NCI/ADR-RES ovarian): > 100 µM | TGI (ACHN renal): > 100 µM | TGI (MDA-MB-231 breast): > 100 µM | TGI (NCI-H23 lung): > 100 µM | TGI (NCI-H226 lung): > 100 µM | TGI (M14 melanoma): > 100 µM | TGI (DU-145 prostate): > 100 µM | TGI (NCI-H460 lung): > 100 µM | TGI (SNB-19 CNS): > 100 µM | TGI (SN12C renal): > 100 µM | TGI (SF-268 CNS): > 100 µM | TGI (OVCAR-5 ovarian): > 100 µM | TGI (SW-620 colon): > 100 µM | TGI (HOP-92 NSCLC): > 100 µM | TGI (OVCAR-8 ovarian): > 100 µM | TGI (IGROV1 ovarian): > 100 µM | TGI (UACC-62 melanoma): > 100 µM | TGI (HCT-116 colon): > 100 µM | TGI (TK-10 renal): > 100 µM | TGI (NCI-H522 lung): > 100 µM | TGI (A549 NSCLC): > 100 µM | TGI (T-47D breast): > 100 µM | TGI (SR leukemia): > 100 µM | TGI (KM12 colon): > 100 µM | TGI (UACC-257 melanoma): > 100 µM | TGI (SF-539 CNS): > 100 µM | TGI (COLO 205 colon): > 100 µM | TGI (UO-31 renal): > 100 µM | TGI (CAKI-1 renal): > 100 µM | TGI (SK-MEL-5 melanoma): > 100 µM | TGI (786-0 renal): > 100 µM | TGI (HL-60(TB) leukemia): > 100 µM | TGI (U251 CNS): > 100 µM | TGI (K-562 leukemia): > 100 µM | TGI (CCRF-CEM leukemia): > 100 µM | TGI (SNB-75 CNS): > 100 µM | TGI (PC-3 prostate): > 100 µM | TGI (EKVX NSCLC): > 100 µM | TGI (SF-295 CNS): > 100 µM | TGI (BT-549 breast): > 100 µM | TGI (RXF 393 renal): > 100 µM | TGI (MCF7 breast): > 100 µM | TGI (MDA-N): > 100 µM | TGI (OVCAR-3 ovarian): > 100 µM | TGI (HCT-15 colon): > 100 µM | TGI (A498 renal): > 100 µM | TGI (SK-MEL-2 melanoma): > 100 µM | TGI (MDA-MB-435): > 100 µM

From PubChem BioAssay (NCI)
